Results as given in US20110280940A1, “Di-Vanilloyl And Tri-Vanilloyl Derivatives For Use In Anti-Cancer Therapy” (priority 2008, published 2011).

Key:
250 protein kinases = assay: Kinase inhibition profile of DLT11 at 20 μM (33 PanQinase); assay type: biochemical, human; details: out of 250 kinases
Protocol: The kinase inhibition profile of DLT11 at 20 μM was determined using 250 protein kinases. Residual activity values were measured by testing each compound at one concentration in duplicate in each kinase assay. A radiometric protein kinase assay (33 PanQinase®Activity Assay) was used for measuring the kinase activity of 250 protein kinases. All kinase assays were performed in 96-well flashPlates™ from Perkin Elmer (Boston, Mass., USA) in a 50 μl reaction volume. The reaction cocktail was pipetted in 4 steps in the following order: • 10 μl of non-radioactive ATP solution (in H2O) • 25 μl of assay buffer/[γ-33P]-ATP mixture • 5 μl of test sample in 10% DMSO • 10 μl of enzyme/substrate mixture […]
(§1) Incorporation of ^33Pi (counting of “cpm”) was determined with a microplate scintillation counter (Microbeta, Wallac).
For each kinase, the median value of the cpm of three wells with complete reaction cocktails, but without kinase, was defined as “low control” (n=3). This value reflects unspecific binding of radioactivity to the plate in the absence of protein kinase but in the presence of the substrate. […] The residual activity (in %) for each compound well was calculated by using the following formula: Res. Activity (%)=100×[(cpm of compound−low control)/(high control−low control)] […]

CDK2/cyclin A = target: T1, CDK2/cyclin A (Homo sapiens, UniProt P24941); assay: Kinase activity assay, CDK2A; assay type: biochemical; details: 10 μM, 1% DMSO, 15 μM ATP; residual activity
T1 construct: made in house
Protocol: Buffer A: 10 mM MgCl2, 1 mM EGTA, 1 mM DTT, 25 mM Tris-HCl pH 7.5, 50 μg heparin/ml. Buffer C: 60 mM β-glycerophosphate, 15 mM p-nitrophenylphosphate, 25 mM Mops (pH 7.2), 5 mM EGTA, 15 mM MgCl2, 1 mM DTT, 1 mM sodium vanadate, 1 mM phenyl phosphate.
Kinase activities were assayed in Buffer A or C, at 30° C., at a final ATP concentration of 15 μM. Blank values were subtracted and activities expressed in % of the maximal activity, i.e. in the absence of inhibitors. Controls were performed with appropriate dilutions of DMSO.
CDK1/cyclin B (M phase starfish oocytes, native), CDK2/cyclin A, CDK2/cyclin E, CDK5/p25 and CDK7/cyclin H (human, recombinant) were prepared as previously described (Leclerc et al., 2001, J. Biol. Chem. 2001, 276, 251-260; Bach et al., 2005, J Biol Chem 280: 31208-31219). Their kinase activity was assayed in buffer C, with 1 mg histone H1/ml, in the presence of 15 μM [gamma-^33P] ATP (3,000 Ci/mmol; 10 mCi/ml) in a final volume of 30 μl. After 30 min incubation at 30° C., 25 μl aliquots of supernatant were spotted onto 2.5×3 cm pieces of Whatman P81 phosphocellulose paper, and, 20 sec later, the filters were washed five times (for at least 5 min each time) in a solution of 10 ml phosphoric acid/liter of water. The wet filters were counted in the presence of 1 ml ACS (Amersham) scintillation fluid.

255 protein kinases = assay: Kinase inhibition profile of DLT95-Cl at 20 μM (33 PanQinase); assay type: biochemical, human; details: over the 255 kinases screened
Protocol: In view of the results in FIG. 5 and Table 7, the inventors performed a broader analysis on impairment of 255 protein kinases by DLT95-Cl compound of the invention.
255 kinases where tested with DLT95-Cl at 20 μM to establish the kinase inhibition profile of the compound.
The kinase inhibition profile of DLT95-Cl at 20 μM was determined using 255 protein kinases. Residual activity values were measured by testing each compound at one concentration in duplicate in each kinase assay. A radiometric protein kinase assay (33 PanQinase®Activity Assay) was used for measuring the kinase activity of 250 protein kinases. All kinase assays were performed in 96-well flashPlates™ from Perkin Elmer (Boston, Mass., USA) in a 50 μl reaction volume. […]
as §1
For each kinase, the median value of the cpm of three wells with complete reaction cocktails, but without kinase, was defined as “low control” (n=2). This value reflects unspecific binding of radioactivity to the plate in the absence of protein kinase but in the presence of the substrate. […] The residual activity (in %) for each compound well was calculated by using the following formula: Res. Activity (%)=100×[(cpm of compound−low control)/(high control−low control)]

COc1cc(C(=O)OCCCCCCOC(=O)c2ccc(O)c(OC)c2)ccc1O [DLT11, Hexane-1,6-diyl bis-(4-hydroxy-3-methoxybenzoate)]
number of kinases that had their activity inhibited (250 protein kinases): 19

COc1cc(C(=O)OCCOC(=O)c2ccc(O)c(OC)c2)ccc1O [DLT1, Ethane-1,2-diyl bis-(4-hydroxy-3-methoxybenzoate)]
% ENZYMATIC ACTIVITY, CDK2A (CDK2/cyclin A): 91%

O=C(OCc1cc(COC(=O)c2ccc(O)c(Cl)c2)cc(COC(=O)c2ccc(O)c(Cl)c2)c1)c1ccc(O)c(Cl)c1 [DLT95-Cl, [3,5-bis[(4-hydroxy-3-chloro-benzoyl)oxymethyl]phenyl]methyl 4-hydroxy-3-chloro-benzoate]
number of kinases whose activity is ≧50% impaired (255 protein kinases): 249
